# From ChEMBL document CHEMBL6153174, “Design and Synthesis of Novel Deazapurine DNMT 1 Inhibitors with In Vivo Efficacy in DLBCL” (J Med Chem, 2025)
# Tested on: not listed separately
# Experiment: Volume of distribution at steady state in Sprague-Dawley rat at 10 mg/kg, iv measured upto 24 hrs by LC/MS/MS analysis
# Type: ADME, organism-based
# Conditions: in vivo, read-out: Vdss
row,Structure (SMILES),Vd
1,CN1CCC(Nc2nc(-c3ccc(F)nc3)nc3c2ccn3CCCN2CCCC2)CC1,33.8 L/kg
2,CN1CCC(Nc2nc(-c3ccc(C#N)c(F)c3)nc3c2ccn3CCCN2CCCC2)CC1,22.4 L/kg

# Target: T1, Histone-lysine N-methyltransferase EHMT2 (Homo sapiens) (UniProt Q96KQ7)
# T1 sequence (whole entry): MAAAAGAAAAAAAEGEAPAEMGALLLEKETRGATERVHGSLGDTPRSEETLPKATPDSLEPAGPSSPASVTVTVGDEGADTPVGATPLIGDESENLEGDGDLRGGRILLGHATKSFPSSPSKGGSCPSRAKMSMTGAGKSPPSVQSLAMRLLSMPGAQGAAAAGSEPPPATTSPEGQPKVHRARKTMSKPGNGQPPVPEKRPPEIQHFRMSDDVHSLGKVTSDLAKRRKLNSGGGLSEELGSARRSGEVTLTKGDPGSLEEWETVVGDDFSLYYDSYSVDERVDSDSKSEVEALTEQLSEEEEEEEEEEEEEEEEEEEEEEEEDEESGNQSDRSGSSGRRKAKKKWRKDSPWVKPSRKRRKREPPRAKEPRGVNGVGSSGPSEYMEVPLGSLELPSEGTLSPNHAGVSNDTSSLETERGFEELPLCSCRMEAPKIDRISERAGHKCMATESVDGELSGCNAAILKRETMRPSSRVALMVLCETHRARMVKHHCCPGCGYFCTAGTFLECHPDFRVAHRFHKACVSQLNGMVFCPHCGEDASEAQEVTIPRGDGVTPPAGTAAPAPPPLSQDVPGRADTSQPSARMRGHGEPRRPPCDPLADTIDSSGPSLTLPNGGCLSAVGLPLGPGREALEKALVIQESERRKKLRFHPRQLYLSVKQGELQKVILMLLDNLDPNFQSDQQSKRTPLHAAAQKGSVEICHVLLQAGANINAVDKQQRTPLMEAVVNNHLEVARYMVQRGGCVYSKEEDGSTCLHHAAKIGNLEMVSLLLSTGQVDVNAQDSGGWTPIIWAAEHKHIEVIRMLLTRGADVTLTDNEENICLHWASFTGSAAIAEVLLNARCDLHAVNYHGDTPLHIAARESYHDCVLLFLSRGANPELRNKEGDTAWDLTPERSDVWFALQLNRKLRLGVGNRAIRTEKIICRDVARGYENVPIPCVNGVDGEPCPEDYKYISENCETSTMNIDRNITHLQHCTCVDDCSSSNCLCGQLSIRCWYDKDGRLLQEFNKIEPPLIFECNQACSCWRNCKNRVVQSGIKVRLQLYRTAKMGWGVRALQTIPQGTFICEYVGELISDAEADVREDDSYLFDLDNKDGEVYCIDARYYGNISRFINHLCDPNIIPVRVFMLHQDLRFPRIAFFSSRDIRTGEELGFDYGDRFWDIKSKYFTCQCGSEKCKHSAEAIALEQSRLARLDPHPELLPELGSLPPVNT
# Experiment: Inhibition of G9a (unknown origin) at 5 uM preincubated for 15 mins followed by substrate and [3H-SAM] addition and measured after 60 mins by microbeta analysis relative to control
# Conditions: time 75.0 min
row,Structure (SMILES),inhibition
1,CN1CCC(Nc2nc(-c3ccncc3)nc3c2ccn3CCCN2CCCC2)CC1,1.3%
2,CN1CCC(Nc2nc(-c3ccc(F)nc3)nc3c2ccn3CCCN2CCCC2)CC1,4.2%
3,CN1CCC(Nc2nc(-c3ccc(C#N)c(F)c3)nc3c2ccn3CCCN2CCCC2)CC1,-1.3%

# Tested on: MV4-11
# Experiment: Antiproliferative activity against human MV4-11 cells assessed as inhibition of cell viability measured after 72 hrs by MTT assay
# Type: functional, cell-based
# Conditions: MV4-11, 72 h
row,Structure (SMILES),IC50
1,CN1CCC(Nc2nc(-c3ccncc3)nc3c2ccn3CCCN2CCCC2)CC1,7.7 µM
2,CN1CCC(Nc2nc(-c3ccc(F)nc3)nc3c2ccn3CCCN2CCCC2)CC1,3.87 µM
3,CN1CCC(Nc2nc(-c3ccc(C#N)c(F)c3)nc3c2ccn3CCCN2CCCC2)CC1,2.05 µM

# Tested on: not listed separately
# Experiment: Apparent clearance during terminal phase in Sprague-Dawley rat at 10 mg/kg, po measured upto 24 hrs by LC/MS/MS analysis
# Type: ADME, organism-based
# Conditions: in vivo, read-out: CLz/F (converted)
row,Structure (SMILES),CL/F
1,CN1CCC(Nc2nc(-c3ccc(F)nc3)nc3c2ccn3CCCN2CCCC2)CC1,1050 mL/min/kg
2,CN1CCC(Nc2nc(-c3ccc(C#N)c(F)c3)nc3c2ccn3CCCN2CCCC2)CC1,843 mL/min/kg

# Tested on: U-937
# Experiment: Antiproliferative activity against human U-937 cells assessed as inhibition of cell viability measured after 72 hrs by MTT assay
# Type: functional, cell-based
# Conditions: U-937, 72 h
row,Structure (SMILES),IC50
1,CN1CCC(Nc2nc(-c3ccncc3)nc3c2ccn3CCCN2CCCC2)CC1,10.1 µM
2,CN1CCC(Nc2nc(-c3ccc(F)nc3)nc3c2ccn3CCCN2CCCC2)CC1,2.61 µM
3,CN1CCC(Nc2nc(-c3ccc(C#N)c(F)c3)nc3c2ccn3CCCN2CCCC2)CC1,1.2 µM

# Tested on: not listed separately
# Experiment: Oral bioavailability in Sprague-Dawley rat at 10 mg/kg measured upto 24 hrs by LC/MS/MS analysis
# Type: ADME, organism-based
# Conditions: Sprague-Dawley, in vivo
row,Structure (SMILES),bioavailability
1,CN1CCC(Nc2nc(-c3ccc(F)nc3)nc3c2ccn3CCCN2CCCC2)CC1,6.5%

# Same assay, conditions: in vivo, po, 10 mg/kg, 24 h
row,Structure (SMILES),F
1,CN1CCC(Nc2nc(-c3ccc(C#N)c(F)c3)nc3c2ccn3CCCN2CCCC2)CC1,5.4%

# Target: T2, DNA (cytosine-5)-methyltransferase 3B (Homo sapiens, UniProt Q9UBC3)
# Experiment: Inhibition of DNMT3B (unknown origin) at 5 uM preincubated for 15 mins followed by substrate and [3H-SAM] addition and measured after 60 mins by microbeta analysis relative to control
# Conditions: time 75.0 min
row,Structure (SMILES),inhibition
1,CN1CCC(Nc2nc(-c3ccncc3)nc3c2ccn3CCCN2CCCC2)CC1,3.5%
2,CN1CCC(Nc2nc(-c3ccc(C#N)c(F)c3)nc3c2ccn3CCCN2CCCC2)CC1,2.3%

# Tested on: not listed separately
# Experiment: Cmax in Sprague-Dawley rat at 10 mg/kg, po measured upto 24 hrs by LC/MS/MS analysis
# Type: ADME, organism-based
# Conditions: in vivo
row,Structure (SMILES),Cmax
1,CN1CCC(Nc2nc(-c3ccc(F)nc3)nc3c2ccn3CCCN2CCCC2)CC1,17.3 ng/mL
2,CN1CCC(Nc2nc(-c3ccc(C#N)c(F)c3)nc3c2ccn3CCCN2CCCC2)CC1,29.3 ng/mL

# Target: T3, DNA (cytosine-5)-methyltransferase 1 (Homo sapiens, UniProt P26358)
# T3 sequence (P26358 whole entry): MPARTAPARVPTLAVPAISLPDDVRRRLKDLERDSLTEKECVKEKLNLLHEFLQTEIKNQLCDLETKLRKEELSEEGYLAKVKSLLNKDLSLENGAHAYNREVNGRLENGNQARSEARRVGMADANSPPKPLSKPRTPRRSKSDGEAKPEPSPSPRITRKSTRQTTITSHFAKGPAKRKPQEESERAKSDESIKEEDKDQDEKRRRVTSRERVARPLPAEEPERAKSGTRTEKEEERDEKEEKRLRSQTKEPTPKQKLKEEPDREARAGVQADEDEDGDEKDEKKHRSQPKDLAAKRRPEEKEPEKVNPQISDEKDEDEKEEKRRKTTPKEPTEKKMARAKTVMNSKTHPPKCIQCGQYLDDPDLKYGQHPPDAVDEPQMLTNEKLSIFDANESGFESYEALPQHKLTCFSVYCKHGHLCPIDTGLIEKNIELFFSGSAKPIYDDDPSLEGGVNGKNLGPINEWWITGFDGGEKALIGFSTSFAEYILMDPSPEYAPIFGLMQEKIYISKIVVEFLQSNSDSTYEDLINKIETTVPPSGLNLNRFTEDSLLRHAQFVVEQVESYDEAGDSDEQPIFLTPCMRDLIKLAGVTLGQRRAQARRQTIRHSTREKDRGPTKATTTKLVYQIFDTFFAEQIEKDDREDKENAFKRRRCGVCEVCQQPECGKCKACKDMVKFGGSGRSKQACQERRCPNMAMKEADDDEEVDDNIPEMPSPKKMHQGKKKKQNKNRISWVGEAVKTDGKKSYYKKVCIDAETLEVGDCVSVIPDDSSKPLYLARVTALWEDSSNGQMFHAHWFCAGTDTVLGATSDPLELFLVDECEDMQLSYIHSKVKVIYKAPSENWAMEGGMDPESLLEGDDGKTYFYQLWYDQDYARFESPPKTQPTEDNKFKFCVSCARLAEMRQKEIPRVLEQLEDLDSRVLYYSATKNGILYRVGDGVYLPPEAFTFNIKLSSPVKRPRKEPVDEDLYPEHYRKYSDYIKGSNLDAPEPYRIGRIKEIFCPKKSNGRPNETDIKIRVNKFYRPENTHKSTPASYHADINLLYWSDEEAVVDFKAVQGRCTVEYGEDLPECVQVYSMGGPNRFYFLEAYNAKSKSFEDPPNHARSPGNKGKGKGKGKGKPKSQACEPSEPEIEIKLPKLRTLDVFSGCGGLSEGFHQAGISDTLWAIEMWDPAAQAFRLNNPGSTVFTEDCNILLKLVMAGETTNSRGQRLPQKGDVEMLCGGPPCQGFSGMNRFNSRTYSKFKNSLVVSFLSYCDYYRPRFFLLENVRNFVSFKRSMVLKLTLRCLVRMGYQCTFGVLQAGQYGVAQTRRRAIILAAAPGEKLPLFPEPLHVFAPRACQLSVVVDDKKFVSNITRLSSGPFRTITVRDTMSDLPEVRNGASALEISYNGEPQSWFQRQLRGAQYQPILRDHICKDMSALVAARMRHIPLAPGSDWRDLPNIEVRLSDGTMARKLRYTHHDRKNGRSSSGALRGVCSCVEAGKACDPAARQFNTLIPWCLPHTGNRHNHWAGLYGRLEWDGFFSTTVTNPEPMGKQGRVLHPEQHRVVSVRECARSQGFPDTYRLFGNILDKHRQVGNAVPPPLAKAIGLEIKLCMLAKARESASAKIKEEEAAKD
# Experiment: Inhibition of DNMT1 (unknown origin) preincubated for 15 mins followed by substrate and [3H-SAM] addition and measured after 60 mins by microbeta analysis
# Conditions: not given
row,Structure (SMILES),IC50
1,CN1CCC(Nc2nc(-c3ccncc3)nc3c2ccn3CCCN2CCCC2)CC1,3.94 µM
2,CN1CCC(Nc2nc(-c3ccc(C#N)c(F)c3)nc3c2ccn3CCCN2CCCC2)CC1,1.22 µM

# Target: T2, DNA (cytosine-5)-methyltransferase 3B
# Experiment: Inhibition of DNMT3B (unknown origin) preincubated for 15 mins followed by substrate and [3H-SAM] addition and measured after 60 mins by microbeta analysis
# Conditions: not given
row,Structure (SMILES),IC50
1,CN1CCC(Nc2nc(-c3ccncc3)nc3c2ccn3CCCN2CCCC2)CC1,> 20 µM
2,CN1CCC(Nc2nc(-c3ccc(F)nc3)nc3c2ccn3CCCN2CCCC2)CC1,> 20 µM
3,CN1CCC(Nc2nc(-c3ccc(C#N)c(F)c3)nc3c2ccn3CCCN2CCCC2)CC1,12.4 µM

# Tested on: not listed separately
# Experiment: Volume of distribution at steady state in Sprague-Dawley rat at 10 mg/kg, po measured upto 24 hrs by LC/MS/MS analysis
# Type: ADME, organism-based
# Conditions: in vivo
row,Structure (SMILES),Vdss
1,CN1CCC(Nc2nc(-c3ccc(F)nc3)nc3c2ccn3CCCN2CCCC2)CC1,303.6 L/kg
2,CN1CCC(Nc2nc(-c3ccc(C#N)c(F)c3)nc3c2ccn3CCCN2CCCC2)CC1,673.5 L/kg

# Tested on: not listed separately
# Experiment: AUC (0 to t) in Sprague-Dawley rat at 10 mg/kg, po measured upto 24 hrs by LC/MS/MS analysis
# Type: ADME, organism-based
# Conditions: Sprague-Dawley, in vivo
row,Structure (SMILES),AUC(0-t) at 24 h
1,CN1CCC(Nc2nc(-c3ccc(F)nc3)nc3c2ccn3CCCN2CCCC2)CC1,116 ng·h/mL

# Same assay, conditions: in vivo, po, 10 mg/kg, 24 h
row,Structure (SMILES),AUCt
1,CN1CCC(Nc2nc(-c3ccc(C#N)c(F)c3)nc3c2ccn3CCCN2CCCC2)CC1,302.6 ng·h/mL

# Tested on: not listed separately
# Experiment: AUC (0 to t) in Sprague-Dawley rat at 10 mg/kg, iv measured upto 24 hrs by LC/MS/MS analysis
# Type: ADME, organism-based
# Conditions: Sprague-Dawley, in vivo
row,Structure (SMILES),AUC(0-t) at 24 h
1,CN1CCC(Nc2nc(-c3ccc(F)nc3)nc3c2ccn3CCCN2CCCC2)CC1,2080 ng·h/mL

# Same assay, conditions: in vivo, iv, 10 mg/kg, 24 h
row,Structure (SMILES),AUCt
1,CN1CCC(Nc2nc(-c3ccc(C#N)c(F)c3)nc3c2ccn3CCCN2CCCC2)CC1,2775.5 ng·h/mL

# Tested on: not listed separately
# Experiment: Terminal elimination half life in Sprague-Dawley rat at 10 mg/kg, po measured upto 24 hrs by LC/MS/MS analysis
# Type: ADME, organism-based
# Conditions: in vivo, read-out: beta t1/2 (converted)
row,Structure (SMILES),half-life
1,CN1CCC(Nc2nc(-c3ccc(F)nc3)nc3c2ccn3CCCN2CCCC2)CC1,3.5 h
2,CN1CCC(Nc2nc(-c3ccc(C#N)c(F)c3)nc3c2ccn3CCCN2CCCC2)CC1,12.3 h

# Tested on: not listed separately
# Experiment: Terminal elimination half life in Sprague-Dawley rat at 10 mg/kg, iv measured upto 24 hrs by LC/MS/MS analysis
# Type: ADME, organism-based
# Conditions: in vivo, read-out: beta t1/2 (converted)
row,Structure (SMILES),half-life
1,CN1CCC(Nc2nc(-c3ccc(F)nc3)nc3c2ccn3CCCN2CCCC2)CC1,7.8 h
2,CN1CCC(Nc2nc(-c3ccc(C#N)c(F)c3)nc3c2ccn3CCCN2CCCC2)CC1,12.1 h

# Tested on: not listed separately
# Experiment: Cmax in Sprague-Dawley rat at 10 mg/kg, iv measured upto 24 hrs by LC/MS/MS analysis
# Type: ADME, organism-based
# Conditions: in vivo
row,Structure (SMILES),Cmax
1,CN1CCC(Nc2nc(-c3ccc(F)nc3)nc3c2ccn3CCCN2CCCC2)CC1,436 ng/mL
2,CN1CCC(Nc2nc(-c3ccc(C#N)c(F)c3)nc3c2ccn3CCCN2CCCC2)CC1,698 ng/mL

# Tested on: not listed separately
# Experiment: Clearance in Sprague-Dawley rat at 10 mg/kg, iv measured upto 24 hrs by LC/MS/MS analysis
# Type: ADME, organism-based
# Conditions: in vivo
row,Structure (SMILES),clearance
1,CN1CCC(Nc2nc(-c3ccc(F)nc3)nc3c2ccn3CCCN2CCCC2)CC1,45 mL/min/kg
2,CN1CCC(Nc2nc(-c3ccc(C#N)c(F)c3)nc3c2ccn3CCCN2CCCC2)CC1,21.7 mL/min/kg

# Target: T4, DNA (cytosine-5)-methyltransferase 3A (Homo sapiens, UniProt Q9Y6K1)
# T4 sequence (Q9Y6K1 whole entry, looked up): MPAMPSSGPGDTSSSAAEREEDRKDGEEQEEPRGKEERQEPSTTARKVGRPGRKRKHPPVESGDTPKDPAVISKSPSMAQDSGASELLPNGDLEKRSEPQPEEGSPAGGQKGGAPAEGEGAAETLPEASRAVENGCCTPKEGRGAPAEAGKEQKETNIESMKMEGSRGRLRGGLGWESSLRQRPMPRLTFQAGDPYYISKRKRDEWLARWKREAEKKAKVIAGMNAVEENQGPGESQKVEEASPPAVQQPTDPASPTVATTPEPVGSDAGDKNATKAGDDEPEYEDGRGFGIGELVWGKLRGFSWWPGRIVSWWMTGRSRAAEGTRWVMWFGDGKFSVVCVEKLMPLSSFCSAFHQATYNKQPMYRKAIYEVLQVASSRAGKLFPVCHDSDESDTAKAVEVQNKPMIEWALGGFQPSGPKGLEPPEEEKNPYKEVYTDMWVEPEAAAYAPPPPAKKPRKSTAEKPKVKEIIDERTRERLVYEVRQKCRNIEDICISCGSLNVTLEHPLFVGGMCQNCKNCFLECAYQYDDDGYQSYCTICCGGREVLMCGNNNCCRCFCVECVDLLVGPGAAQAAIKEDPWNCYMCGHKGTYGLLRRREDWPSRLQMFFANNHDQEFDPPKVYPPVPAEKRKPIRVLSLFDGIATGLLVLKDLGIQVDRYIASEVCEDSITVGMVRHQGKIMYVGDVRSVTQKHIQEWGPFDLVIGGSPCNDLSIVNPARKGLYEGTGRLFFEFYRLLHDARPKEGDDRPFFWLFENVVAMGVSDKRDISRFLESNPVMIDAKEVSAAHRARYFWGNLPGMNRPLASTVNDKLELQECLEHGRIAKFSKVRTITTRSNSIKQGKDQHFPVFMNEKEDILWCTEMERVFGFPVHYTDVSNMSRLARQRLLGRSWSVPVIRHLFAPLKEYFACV
# Experiment: Inhibition of DNMT3A (unknown origin) at 5 uM preincubated for 15 mins followed by substrate and [3H-SAM] addition and measured after 60 mins by microbeta analysis relative to control
# Conditions: time 75.0 min
row,Structure (SMILES),inhibition
1,CN1CCC(Nc2nc(-c3ccncc3)nc3c2ccn3CCCN2CCCC2)CC1,8.5%
2,CN1CCC(Nc2nc(-c3ccc(F)nc3)nc3c2ccn3CCCN2CCCC2)CC1,6.8%
3,CN1CCC(Nc2nc(-c3ccc(C#N)c(F)c3)nc3c2ccn3CCCN2CCCC2)CC1,11%

# Target: T5, Histone-lysine N-methyltransferase EHMT2 (Homo sapiens, UniProt Q96KQ7)
# T5 sequence (Q96KQ7 whole entry): T1 sequence (whole entry)
# Experiment: Inhibition of G9a (unknown origin) preincubated for 15 mins followed by substrate and [3H-SAM] addition and measured after 60 mins by microbeta analysis
# Conditions: not given
row,Structure (SMILES),IC50
1,CN1CCC(Nc2nc(-c3ccncc3)nc3c2ccn3CCCN2CCCC2)CC1,> 20 µM
2,CN1CCC(Nc2nc(-c3ccc(C#N)c(F)c3)nc3c2ccn3CCCN2CCCC2)CC1,> 20 µM

# Target: T4, DNA (cytosine-5)-methyltransferase 3A
# Experiment: Inhibition of DNMT3A (unknown origin) preincubated for 15 mins followed by substrate and [3H-SAM] addition and measured after 60 mins by microbeta analysis
# Conditions: not given
row,Structure (SMILES),IC50
1,CN1CCC(Nc2nc(-c3ccncc3)nc3c2ccn3CCCN2CCCC2)CC1,> 20 µM
2,CN1CCC(Nc2nc(-c3ccc(F)nc3)nc3c2ccn3CCCN2CCCC2)CC1,3.13 µM
3,CN1CCC(Nc2nc(-c3ccc(C#N)c(F)c3)nc3c2ccn3CCCN2CCCC2)CC1,10.9 µM

# Target: T3, DNA (cytosine-5)-methyltransferase 1
# Experiment: Inhibition of DNMT1 (unknown origin) at 5 uM preincubated for 15 mins followed by substrate and [3H-SAM] addition and measured after 60 mins by microbeta analysis relative to control
# Conditions: time 75.0 min
row,Structure (SMILES),inhibition
1,CN1CCC(Nc2nc(-c3ccncc3)nc3c2ccn3CCCN2CCCC2)CC1,69%
2,CN1CCC(Nc2nc(-c3ccc(F)nc3)nc3c2ccn3CCCN2CCCC2)CC1,72%
3,CN1CCC(Nc2nc(-c3ccc(C#N)c(F)c3)nc3c2ccn3CCCN2CCCC2)CC1,82%
